Test results taken from patent US11884647B2, “Compounds and methods for targeting pathogenic blood vessels” (THE REGENTS OF THE UNIVERSITY OF CALIFORNIA, priority 2019, dated 2024).

Tested on: tumor endothelial cells (LL/2 lung cancer tumor)
Experiment: Lung LL2 ex vivo model of tumor angiogenesis
Type: cell-based, mouse
Conditions: for cytotoxicity at 40 µM: Mus musculus, Endothelial cell, 48 h, read-out: Cell death
In short: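 Mouse LL2 tumor fragments (~0.5×0.5×0.3 mm) embedded in Matrigel and grown in endothelial growth medium at 37° C until endothelial outgrowth (about 4 days) before drug treatment. About 48 h after drug addition, stained 10 min with fluorescein diacetate/propidium iodide; live (green) and dead (red) cells imaged at 2× with fixed channel settings.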

Row | Structure (SMILES) | cytotoxicity at 40 µM [%] | Cell death (Lung LL2 ex vivo, Conc. 40 μm, drug treatment two days) [%]
1 | COc1ccc(S(=O)(=O)c2cnc3cc(OC)c(OC)cc3c2N2CCC(N3CCCC3=O)CC2)cc1 [compound 321, 1-(1-(6,7-dimethoxy-3-((4-methoxyphenyl)sulfonyl)quinolin-4-yl)piperidin-4-yl)pyrrolidin-2-one] | 40 | 
2 | COc1ccc(S(=O)(=O)c2cnc3cc(OC)c(OC)cc3c2N2CCC(N3CCCC3CO)CC2)cc1 (stereo not shown) [compound 322, (1-(1-(6,7-dimethoxy-3-((4-methoxyphenyl)sulfonyl)quinolin-4-yl)piperidin-4-yl)pyrrolidin-2-yl)methanol] | 30 | 
3 | COc1ccc(S(=O)(=O)c2cnc3cc(OC)c(OC)cc3c2N2CCCN(CCO)CC2)cc1 [compound 323, 2-(4-(6,7-dimethoxy-3-((4-methoxyphenyl)sulfonyl)quinolin-4-yl)-1,4-diazepan-1-yl)ethan-1-ol] | 30 | 
4 | COc1ccc(S(=O)(=O)c2cnc3cc(OC)c(OC)cc3c2N2CCC3C(COCCN3CC(C)C)C2)cc1 (stereo not shown) [compound 324, 7-(6,7-dimethoxy-3-((4-methoxyphenyl)sulfonyl)quinolin-4-yl)-1-isobutyldecahydropyrido[4,3-e][1,4]oxazepine] | 60 | 
5 | COc1ccc(S(=O)(=O)c2cnc3cc(OC)c(OC)cc3c2N2CCCN(CC3(O)CCCC3)CC2)cc1 [compound 325, 1-((4-(6,7-dimethoxy-3-((4-methoxyphenyl)sulfonyl)quinolin-4-yl)-1,4-diazepan-1-yl)methyl)cyclopentan-1-ol] | 30 | 
6 | COc1ccc(S(=O)(=O)c2cnc3cc(OC)c(OC)cc3c2N2CCCN(C3COC3)CC2)cc1 [compound 326, 6,7-dimethoxy-3-((4-methoxyphenyl)sulfonyl)-4-(4-(oxetan-3-yl)-1,4-diazepan-1-yl)quinoline] | 30 | 
7 | COc1ccc(S(=O)(=O)c2cnc3cc(OC)c(OC)cc3c2N2CCCN(c3nc4ccc(Cl)cc4s3)CC2)cc1 [compound 327, 6-chloro-2-(4-(6,7-dimethoxy-3-((4-methoxyphenyl)sulfonyl)quinolin-4-yl)-1,4-diazepan-1-yl)benzo[d]thiazole] |  | 20
8 | COc1ccc(S(=O)(=O)c2cnc3cc(OC)c(OC)cc3c2N2CCC(=O)N(C)CC2)cc1 [compound 328, 1-(6,7-dimethoxy-3-((4-methoxyphenyl)sulfonyl)quinolin-4-yl)-4-methyl-1,4-diazepan-5-one] | 30 | 
9 | COc1ccc(S(=O)(=O)c2cnc3cc(OC)c(OC)cc3c2N2CCCN(C3CCSCC3)CC2)cc1 [compound 329, 6,7-dimethoxy-3-((4-methoxyphenyl)sulfonyl)-4-(4-(tetrahydro-2H-thiopyran-4-yl)-1,4-diazepan-1-yl)quinoline] | 40 | 
10 | COc1ccc(S(=O)(=O)c2cnc3cc(OC)c(OC)cc3c2N2CCCN(C3CCS(=O)(=O)CC3)CC2)cc1 [compound 330, 4-(4-(6,7-dimethoxy-3-((4-methoxyphenyl)sulfonyl)quinolin-4-yl)-1,4-diazepan-1-yl)tetrahydro-2H-thiopyran 1,1-dioxide] | 50 | 
11 | COc1ccc(S(=O)(=O)c2cnc3ccc(C(=O)N(C)C)cc3c2N2CCC(N3CCCCC3)CC2)cc1 [compound 331, 4-([1,4′-bipiperidin]-1′-yl)-3-((4-methoxyphenyl)sulfonyl)-N,N-dimethylquinoline-6-carboxamide] | 10 | 
12 | COc1ccc(S(=O)(=O)c2cnc3ccc(C(=O)N(C)C)cc3c2N2CCC(N3CCCC3=O)CC2)cc1 [compound 332, 3-((4-methoxyphenyl)sulfonyl)-N,N-dimethyl-4-(4-(2-oxopyrrolidin-1-yl)piperidin-1-yl)quinoline-6-carboxamid] | 0 | 
13 | COc1ccc(S(=O)(=O)c2cnc3ccc(C(=O)N(C)C)cc3c2N2CCCN(CC(=O)N(C)C)CC2)cc1 [compound 333, 4-(4-(2-(dimethylamino)-2-oxoethyl)-1,4-diazepan-1-yl)-3-((4-methoxyphenyl)sulfonyl)-N,N-dimethylquinoline-6-carboxamide] | 0 | 
